System: Hepatitis C virus
Assay: Inhibition of HCV genotype 1b isolate con1 NS5B polymerase assessed as incorporation of radiolabeled nucleotide into RNA product
Parameters: species or system Hepacivirus hominis
Conditions: not given

SMILES | IC50 [nM]
CCCC(C)n1c(=O)c(C2=CS(=O)(=O)c3cc(NS(C)(=O)=O)ccc3N2)c(O)c2cc(F)ccc21 (stereo not given) | 41
O=c1c(C2=CS(=O)(=O)c3cc(O)ccc3N2)c(O)c2cc(F)ccc2n1Cc1ccc(F)cc1 | 69
N#Cc1ccc2c(c1)S(=O)(=O)C=C(c1c(O)c3cc(F)ccc3n(Cc3ccc(F)cc3)c1=O)N2 | 694
CS(=O)(=O)Nc1ccc2c(c1)S(=O)(=O)C=C(c1c(O)c3cc(F)ccc3n(CC3CCCCC3)c1=O)N2 | 18
COC(C)(C)CCn1c(=O)c(C2=CS(=O)(=O)c3cc(NS(C)(=O)=O)ccc3N2)c(O)c2cc(F)ccc21 | 10
CC(=O)Nc1ccc2c(c1)S(=O)(=O)C=C(c1c(O)c3cc(F)ccc3n(Cc3ccc(F)cc3)c1=O)N2 | 869
CS(=O)(=O)Nc1ccc2c(c1)S(=O)(=O)C=C(c1c(O)c3cccc(F)c3n(Cc3ccc(F)cc3)c1=O)N2 | 8
CC(C)(C)CCn1c(=O)c(C2=CS(=O)(=O)c3cc(NS(C)(=O)=O)ccc3N2)c(O)c2cc(F)ccc21 | 12

Next, values leading:

IC50 [nM] | SMILES
14 | CS(=O)(=O)Nc1ccc2c(c1)S(=O)(=O)C=C(c1c(O)c3cc(F)ccc3n(Cc3ccc(F)c(F)c3)c1=O)N2
10 | CS(=O)(=O)Nc1ccc2c(c1)S(=O)(=O)C=C(c1c(O)c3cc(Cl)ccc3n(Cc3ccc(F)cc3)c1=O)N2
5 | COc1ccc2c(c1)c(O)c(C1=CS(=O)(=O)c3cc(NS(C)(=O)=O)ccc3N1)c(=O)n2Cc1ccc(F)cc1
10 | CS(=O)(=O)Nc1ccc2c(c1)S(=O)(=O)C=C(c1c(O)c3ccc(F)cc3n(Cc3ccc(F)cc3)c1=O)N2
10 | COc1cc(Cn2c(=O)c(C3=CS(=O)(=O)c4cc(NS(C)(=O)=O)ccc4N3)c(O)c3cc(F)ccc32)ccc1F
384 | CS(=O)(=O)Nc1ccc2c(c1)S(=O)(=O)C=C(c1c(O)c3ccc(Cl)cc3n(Cc3ccc(F)cc3)c1=O)N2
11 | CS(=O)(=O)Nc1ccc2c(c1)S(=O)(=O)C=C(c1c(O)c3cc(F)ccc3n(Cc3ccncc3)c1=O)N2
7 | CS(=O)(=O)Nc1ccc2c(c1)S(=O)(=O)C=C(c1c(O)c3cc(F)ccc3n(Cc3ccccc3)c1=O)N2
17 | Cc1ccc2c(c1)c(O)c(C1=CS(=O)(=O)c3cc(NS(C)(=O)=O)ccc3N1)c(=O)n2Cc1ccc(F)cc1

System: not listed separately
Assay: Cytotoxicity against human 2209-23 cells by WST1 assay
Type: cell-based
Conditions: not given

SMILES | CC50 [nM]
CCCC(C)n1c(=O)c(C2=CS(=O)(=O)c3cc(NS(C)(=O)=O)ccc3N2)c(O)c2cc(F)ccc21 (stereo not given) | > 50000
CS(=O)(=O)Nc1ccc2c(c1)S(=O)(=O)C=C(c1c(O)c3cc(F)ccc3n(Cc3ccc(F)c(F)c3)c1=O)N2 | > 50000
CS(=O)(=O)Nc1ccc2c(c1)S(=O)(=O)C=C(c1c(O)c3cc(Cl)ccc3n(Cc3ccc(F)cc3)c1=O)N2 | > 50000
COc1ccc2c(c1)c(O)c(C1=CS(=O)(=O)c3cc(NS(C)(=O)=O)ccc3N1)c(=O)n2Cc1ccc(F)cc1 | > 50000
CS(=O)(=O)Nc1ccc2c(c1)S(=O)(=O)C=C(c1c(O)c3ccc(F)cc3n(Cc3ccc(F)cc3)c1=O)N2 | > 50000
O=c1c(C2=CS(=O)(=O)c3cc(O)ccc3N2)c(O)c2cc(F)ccc2n1Cc1ccc(F)cc1 | > 50000
N#Cc1ccc2c(c1)S(=O)(=O)C=C(c1c(O)c3cc(F)ccc3n(Cc3ccc(F)cc3)c1=O)N2 | > 50000
CS(=O)(=O)Nc1ccc2c(c1)S(=O)(=O)C=C(c1c(O)c3cc(F)ccc3n(CC3CCCCC3)c1=O)N2 | > 50000
COc1cc(Cn2c(=O)c(C3=CS(=O)(=O)c4cc(NS(C)(=O)=O)ccc4N3)c(O)c3cc(F)ccc32)ccc1F | > 50000
COC(C)(C)CCn1c(=O)c(C2=CS(=O)(=O)c3cc(NS(C)(=O)=O)ccc3N2)c(O)c2cc(F)ccc21 | > 50000
CS(=O)(=O)Nc1ccc2c(c1)S(=O)(=O)C=C(c1c(O)c3ccc(Cl)cc3n(Cc3ccc(F)cc3)c1=O)N2 | > 50000
CC(=O)Nc1ccc2c(c1)S(=O)(=O)C=C(c1c(O)c3cc(F)ccc3n(Cc3ccc(F)cc3)c1=O)N2 | > 50000
CS(=O)(=O)Nc1ccc2c(c1)S(=O)(=O)C=C(c1c(O)c3cc(F)ccc3n(Cc3ccncc3)c1=O)N2 | > 50000
CS(=O)(=O)Nc1ccc2c(c1)S(=O)(=O)C=C(c1c(O)c3cccc(F)c3n(Cc3ccc(F)cc3)c1=O)N2 | > 50000
CS(=O)(=O)Nc1ccc2c(c1)S(=O)(=O)C=C(c1c(O)c3cc(F)ccc3n(Cc3ccccc3)c1=O)N2 | > 50000
CC(C)(C)CCn1c(=O)c(C2=CS(=O)(=O)c3cc(NS(C)(=O)=O)ccc3N2)c(O)c2cc(F)ccc21 | > 50000
Cc1ccc2c(c1)c(O)c(C1=CS(=O)(=O)c3cc(NS(C)(=O)=O)ccc3N1)c(=O)n2Cc1ccc(F)cc1 | > 50000

System: Hepatitis C virus
Assay: Antiviral activity against HCV genotype 1b isolate con1 infected in human 2209-23 cells assessed as inhibition of [3H]thymidine incorporation into DNA by scintillation proximity assay in presence of 5% fetal bovine serum
Type: functional, organism-based, Hepacivirus hominis
Conditions: isolate Con1, 2209-23

SMILES | EC50 [nM]
CCCC(C)n1c(=O)c(C2=CS(=O)(=O)c3cc(NS(C)(=O)=O)ccc3N2)c(O)c2cc(F)ccc21 (stereo not given) | 9
O=c1c(C2=CS(=O)(=O)c3cc(O)ccc3N2)c(O)c2cc(F)ccc2n1Cc1ccc(F)cc1 | 1740
N#Cc1ccc2c(c1)S(=O)(=O)C=C(c1c(O)c3cc(F)ccc3n(Cc3ccc(F)cc3)c1=O)N2 | 4640
CS(=O)(=O)Nc1ccc2c(c1)S(=O)(=O)C=C(c1c(O)c3cc(F)ccc3n(CC3CCCCC3)c1=O)N2 | 100
COC(C)(C)CCn1c(=O)c(C2=CS(=O)(=O)c3cc(NS(C)(=O)=O)ccc3N2)c(O)c2cc(F)ccc21 | 47
CC(=O)Nc1ccc2c(c1)S(=O)(=O)C=C(c1c(O)c3cc(F)ccc3n(Cc3ccc(F)cc3)c1=O)N2 | 10900
CS(=O)(=O)Nc1ccc2c(c1)S(=O)(=O)C=C(c1c(O)c3cccc(F)c3n(Cc3ccc(F)cc3)c1=O)N2 | 103

Results, then the compound that gave them:

EC50 [nM] | SMILES
15 | CS(=O)(=O)Nc1ccc2c(c1)S(=O)(=O)C=C(c1c(O)c3cc(F)ccc3n(Cc3ccc(F)c(F)c3)c1=O)N2
166 | CS(=O)(=O)Nc1ccc2c(c1)S(=O)(=O)C=C(c1c(O)c3cc(Cl)ccc3n(Cc3ccc(F)cc3)c1=O)N2
143 | COc1ccc2c(c1)c(O)c(C1=CS(=O)(=O)c3cc(NS(C)(=O)=O)ccc3N1)c(=O)n2Cc1ccc(F)cc1
74 | CS(=O)(=O)Nc1ccc2c(c1)S(=O)(=O)C=C(c1c(O)c3ccc(F)cc3n(Cc3ccc(F)cc3)c1=O)N2
100 | COc1cc(Cn2c(=O)c(C3=CS(=O)(=O)c4cc(NS(C)(=O)=O)ccc4N3)c(O)c3cc(F)ccc32)ccc1F
2280 | CS(=O)(=O)Nc1ccc2c(c1)S(=O)(=O)C=C(c1c(O)c3ccc(Cl)cc3n(Cc3ccc(F)cc3)c1=O)N2
64 | CS(=O)(=O)Nc1ccc2c(c1)S(=O)(=O)C=C(c1c(O)c3cc(F)ccc3n(Cc3ccncc3)c1=O)N2
44 | CS(=O)(=O)Nc1ccc2c(c1)S(=O)(=O)C=C(c1c(O)c3cc(F)ccc3n(Cc3ccccc3)c1=O)N2
25 | Cc1ccc2c(c1)c(O)c(C1=CS(=O)(=O)c3cc(NS(C)(=O)=O)ccc3N1)c(=O)n2Cc1ccc(F)cc1

System: Hepatitis C virus
Assay: Antiviral activity against HCV genotype 1b isolate con1 infected in human 2209-23 cells assessed as inhibition of [3H]thymidine incorporation into DNA by scintillation proximity assay in presence of 40% human serum albumin
Type: functional, organism-based, Hepacivirus hominis
Conditions: isolate Con1, 2209-23

SMILES | EC50 [nM]
COC(C)(C)CCn1c(=O)c(C2=CS(=O)(=O)c3cc(NS(C)(=O)=O)ccc3N2)c(O)c2cc(F)ccc21 | 1200
CS(=O)(=O)Nc1ccc2c(c1)S(=O)(=O)C=C(c1c(O)c3cccc(F)c3n(Cc3ccc(F)cc3)c1=O)N2 | 2780
CC(C)(C)CCn1c(=O)c(C2=CS(=O)(=O)c3cc(NS(C)(=O)=O)ccc3N2)c(O)c2cc(F)ccc21 | 241

Further lines, results first:

EC50 [nM] | SMILES
2050 | COc1ccc2c(c1)c(O)c(C1=CS(=O)(=O)c3cc(NS(C)(=O)=O)ccc3N1)c(=O)n2Cc1ccc(F)cc1
898 | CS(=O)(=O)Nc1ccc2c(c1)S(=O)(=O)C=C(c1c(O)c3ccc(F)cc3n(Cc3ccc(F)cc3)c1=O)N2
528 | COc1cc(Cn2c(=O)c(C3=CS(=O)(=O)c4cc(NS(C)(=O)=O)ccc4N3)c(O)c3cc(F)ccc32)ccc1F
688 | CS(=O)(=O)Nc1ccc2c(c1)S(=O)(=O)C=C(c1c(O)c3cc(F)ccc3n(Cc3ccncc3)c1=O)N2
406 | CS(=O)(=O)Nc1ccc2c(c1)S(=O)(=O)C=C(c1c(O)c3cc(F)ccc3n(Cc3ccccc3)c1=O)N2

System: Hepatitis C virus
Assay: Ratio of EC50 for HCV genotype 1b isolate con1 in presence of human serum albumin to EC50 for HCV genotype 1b isolate con1 in presence of fetal bovine serum
Type: functional, Hepacivirus hominis
Conditions: not given

SMILES | fold change (FC)
COc1ccc2c(c1)c(O)c(C1=CS(=O)(=O)c3cc(NS(C)(=O)=O)ccc3N1)c(=O)n2Cc1ccc(F)cc1 | 14.3
CS(=O)(=O)Nc1ccc2c(c1)S(=O)(=O)C=C(c1c(O)c3ccc(F)cc3n(Cc3ccc(F)cc3)c1=O)N2 | 12.1
COc1cc(Cn2c(=O)c(C3=CS(=O)(=O)c4cc(NS(C)(=O)=O)ccc4N3)c(O)c3cc(F)ccc32)ccc1F | 9.2
COC(C)(C)CCn1c(=O)c(C2=CS(=O)(=O)c3cc(NS(C)(=O)=O)ccc3N2)c(O)c2cc(F)ccc21 | 9.2
CS(=O)(=O)Nc1ccc2c(c1)S(=O)(=O)C=C(c1c(O)c3cc(F)ccc3n(Cc3ccncc3)c1=O)N2 | 9.2
CS(=O)(=O)Nc1ccc2c(c1)S(=O)(=O)C=C(c1c(O)c3cccc(F)c3n(Cc3ccc(F)cc3)c1=O)N2 | 26.9
CS(=O)(=O)Nc1ccc2c(c1)S(=O)(=O)C=C(c1c(O)c3cc(F)ccc3n(Cc3ccccc3)c1=O)N2 | 9.2
